In brackets after ≈: the same amount, converted by molar mass. Where only a bound is given, the exact number is not on record here.

As usually defined, the Cmax is the maximum level reached in the sampled fluid or tissue. Usually clearance stands for a measure of how efficiently the substance is removed, as volume per time. For orientation: half-life means the time in which the quantity being followed falls by half. Usually AUC(0-inf) stands for total exposure, with the tail of the curve extrapolated. The low end stands for low exposure, the high end for high exposure. As usually defined, the solubility is the dissolved amount per volume that the medium holds. Read a high solubility as much dissolved substance. One may read the Tmax as the time at which the peak concentration occurs.

The nature of series [1]: Cmax in Beagle dog at 30 mg/kg, po. Set-up: dose 30 mg/kg, route oral. Format: ADME, organism-based, Canis lupus familiaris. Particulars: in vivo.
Series [2] is described as follows: Clearance in Beagle dog at 3 mg/kg, iv. Format: ADME, organism-based, Canis lupus familiaris. Set-up: dose 3 mg/kg, route intravenous. Particulars: in vivo.
Series [3] in a line: Half life in Beagle dog plasma at 30 mg/kg, po. The format is ADME, organism-based, Canis lupus familiaris. Set-up: dose 30 mg/kg, route oral.
A short description of series [4]: Terminal elimination half life in rat plasma at 30 mg/kg, po. Format: ADME, organism-based. Set-up: dose 30 mg/kg, route oral.
Series [5] in a line: Bioavailability in rat at 30 mg/kg, po. The format is ADME, organism-based. Particulars: in vivo.
A short description of series [6]: AUC (0 to infinity) in rat at 3 mg/kg, iv. Set-up: time infinity, dose 3 mg/kg, route intravenous. Format: ADME, organism-based. The following applies: plasma.
Series [7] in a line: AUC (0 to infinity) in Beagle dog at 3 mg/kg, iv. The format is ADME, organism-based, Canis lupus familiaris. Set-up: time infinity, dose 3 mg/kg, route intravenous. Particulars: plasma.
Series [8] is described as follows: Solubility at pH 7.4. Format: physicochemical. Particulars: buffer.
Series [9] in a line: Volume of distribution at steady state in rat at 3 mg/kg, iv. Set-up: dose 3 mg/kg, route intravenous. The following applies: in vivo, read-out: Vdss. Format: ADME, organism-based.
A short description of series [10]: Clearance in rat at 3 mg/kg, iv. The format is ADME, organism-based. Set-up: dose 3 mg/kg, route intravenous. Particulars: in vivo.
Series [11] in a line: Tmax in rat at 30 mg/kg, po. The format is ADME, organism-based. Set-up: dose 30 mg/kg, route oral. Particulars: in vivo.
Series [12] in a line: AUC (0 to infinity) in rat at 30 mg/kg, po. Set-up: time infinity, dose 30 mg/kg, route oral. Particulars: plasma. Format: ADME, organism-based.
Series [13] is described as follows: Metabolic stability in mouse liver S9 fraction assessed as elimination half life. The format is ADME, subcellular.
The nature of series [14]: Tmax in Beagle dog at 30 mg/kg, po. Set-up: dose 30 mg/kg, route oral. Format: ADME, organism-based, Canis lupus familiaris. Particulars: in vivo.
Series [15] is described as follows: AUC (0 to infinity) in Beagle dog at 30 mg/kg, po. The format is ADME, organism-based, Canis lupus familiaris. Set-up: time infinity, dose 30 mg/kg, route oral. The following applies: plasma.
Series [16] is described as follows: Volume of distribution at steady state in Beagle dog at 3 mg/kg, iv. The format is ADME, organism-based, Canis lupus familiaris. Set-up: dose 3 mg/kg, route intravenous. The following applies: in vivo, read-out: Vdss.
Series [17] in a line: Metabolic stability in rat liver S9 fraction assessed as elimination half life. Format: ADME, subcellular.
Series [18] in a line: Chemical stability assessed as half life of hydrolysis at pH 2. The format is physicochemical. Particulars: buffer.
Series [19] can be described thus: Metabolic stability in human liver microsomes assessed as elimination half life. Format: ADME, Microsome.
Series [20] in a line: Half life in rat plasma at 3 mg/kg, iv. The format is ADME, organism-based. Set-up: dose 3 mg/kg, route intravenous.
Series [21] is described as follows: Half life in Beagle dog plasma at 3 mg/kg, iv. The format is ADME, organism-based, Canis lupus familiaris. Set-up: dose 3 mg/kg, route intravenous.
The nature of series [22]: Metabolic stability in dog liver S9 fraction assessed as elimination half life. Format: ADME, subcellular, Canis lupus familiaris.
Series [23] can be described thus: Chemical stability assessed as half life of hydrolysis at pH 7.4. Particulars: buffer. The format is physicochemical.
Series [24] in a line: Bioavailability in Beagle dog at 30 mg/kg, po. Format: ADME, organism-based, Canis lupus familiaris. The following applies: in vivo.
A short description of series [25]: Cmax in Beagle dog at 3 mg/kg, iv. Set-up: dose 3 mg/kg, route intravenous. The following applies: in vivo. Format: ADME, organism-based, Canis lupus familiaris.
A short description of series [26]: Cmax in rat at 3 mg/kg, iv. The format is ADME, organism-based. Set-up: dose 3 mg/kg, route intravenous. Particulars: in vivo.
Series [27] is described as follows: Cmax in rat at 30 mg/kg, po. The format is ADME, organism-based. Set-up: dose 30 mg/kg, route oral. Particulars: in vivo.
A short description of series [28]: AUC (0 to infinity) in Beagle dog at 10 mg/kg, po. The format is ADME, organism-based, Canis lupus familiaris. Set-up: time infinity, dose 10 mg/kg, route oral. Particulars: plasma.
Series [29] in a line: AUC (0 to infinity) in Beagle dog at 2 mg/kg, iv. The format is ADME, organism-based, Canis lupus familiaris. Set-up: time infinity, dose 2 mg/kg, route intravenous. Particulars: plasma.
Series [30] is described as follows: AUC (0 to infinity) in rat at 2 mg/kg, iv. The format is ADME, organism-based. Set-up: time infinity, dose 2 mg/kg, route intravenous. Particulars: plasma.
A short description of series [31]: Terminal elimination half life in rat plasma at 10 mg/kg, po. The format is ADME, organism-based. Set-up: dose 10 mg/kg, route oral.
Series [32] is described as follows: Volume of distribution at steady state in Beagle dog at 2 mg/kg, iv. Format: ADME, organism-based, Canis lupus familiaris. Set-up: dose 2 mg/kg, route intravenous. The following applies: in vivo, read-out: Vdss.
Series [33] is described as follows: Volume of distribution at steady state in rat at 2 mg/kg, iv. The format is ADME, organism-based. Set-up: dose 2 mg/kg, route intravenous. The following applies: in vivo, read-out: Vdss.
Series [34] in a line: Bioavailability in rat at 10 mg/kg, po. Format: ADME, organism-based. Particulars: in vivo.
Series [35] can be described thus: Clearance in Beagle dog at 2 mg/kg, iv. Format: ADME, organism-based, Canis lupus familiaris. Set-up: dose 2 mg/kg, route intravenous. Particulars: in vivo.
Series [36] in a line: AUC (0 to infinity) in rat at 10 mg/kg, po. The format is ADME, organism-based. Set-up: time infinity, dose 10 mg/kg, route oral. The following applies: plasma.
Series [37] is described as follows: Cmax in rat at 10 mg/kg, po. The format is ADME, organism-based. Set-up: dose 10 mg/kg, route oral. Particulars: in vivo.
A short description of series [38]: Half life in Beagle dog plasma at 2 mg/kg, iv. The format is ADME, organism-based, Canis lupus familiaris. Set-up: dose 2 mg/kg, route intravenous.
Series [39] can be described thus: Cmax in rat at 2 mg/kg, iv. Set-up: dose 2 mg/kg, route intravenous. Format: ADME, organism-based. Particulars: in vivo.
Series [40] in a line: Half life in rat plasma at 2 mg/kg, iv. The format is ADME, organism-based. Set-up: dose 2 mg/kg, route intravenous.
A short description of series [41]: Cmax in Beagle dog at 2 mg/kg, iv. Particulars: in vivo. The format is ADME, organism-based, Canis lupus familiaris. Set-up: dose 2 mg/kg, route intravenous.
Series [42] in a line: Cmax in Beagle dog at 10 mg/kg, po. Format: ADME, organism-based, Canis lupus familiaris. Particulars: in vivo. Set-up: dose 10 mg/kg, route oral.
Series [43] is described as follows: Clearance in rat at 2 mg/kg, iv. Format: ADME, organism-based. Set-up: dose 2 mg/kg, route intravenous. The following applies: in vivo.
Series [44] in a line: Tmax in rat at 10 mg/kg, po. The format is ADME, organism-based. Set-up: dose 10 mg/kg, route oral. The following applies: in vivo.
Series [45] is described as follows: Bioavailability in Beagle dog at 10 mg/kg, po. The format is ADME, organism-based, Canis lupus familiaris. Particulars: in vivo.
The nature of series [46]: Half life in Beagle dog plasma at 10 mg/kg, po. The format is ADME, organism-based, Canis lupus familiaris. Set-up: dose 10 mg/kg, route oral.
Series [47] can be described thus: Tmax in Beagle dog at 10 mg/kg, po. The following applies: in vivo. The format is ADME, organism-based, Canis lupus familiaris. Set-up: dose 10 mg/kg, route oral.

Turning to `c1ccc2oc(Oc3ccc(OCCN4CCCCC4)cc3)nc2c1`, the Cmax in series [1] was determined as 1200 nM; in [25], 4500 nM; in series [26], 3800 nM; in [27], 1100 nM. The clearance was 13 mL/min in [2] and 9.5 mL/min in [10]. The half-life in [3] is 2.3 h; in [4], 5.2 h; in series [13] it was 0.667 h; in series [17] it was over 1.67 h; in series [18], 1.5 h; in series [19], over 1.67 h. Moreover, the half-life in series [20] is 2.6 h; in [21] it was 1 h; in [22] it was 0.9 h; in [23], over 16.7 h. In addition, the bioavailability in series [5] was determined as 31%; in [24] it was 11%. Moreover, the AUC(0-inf) in series [6] is 4.8 µM·h; in [7], 3.9 µM·h; in series [12] it was 15 µM·h; in [15], 4.2 µM·h. In addition, the concentration in solution in series [8] (solubility) was 160 µg/mL (≈ 473 µM). The Vd in [9] was 7 L/kg; in series [16], 3.2 L/kg. Further, the Tmax in series [11] was 4.6 h; in series [14], 2.3 h.
On to `O=C(CO)NC1CCN(Cc2ccc(Oc3nc4ccccc4s3)cc2)CC1`, for which the AUC(0-inf) in series [28] was 60.3 µM·h; in [29] it was 8 µM·h; in series [30], 10 µM·h; in [36], 33 µM·h. Besides, the half-life in series [31] is 5.6 h; in series [38], 3.6 h; in series [40], 3.5 h; in series [46], 6.9 h. Further, the Vd is 3.2 L/kg in [32] and 2.5 L/kg in series [33]. For the same compound, the bioavailability in series [34] came out at 65%; in [45], 150%. Further, the clearance in series [35] is 93.3 mL/min; in [43], 3 mL/min. Besides, the Cmax was found to be 2200 nM in series [37], 2200 nM in [39], 2800 nM in series [41] and 26000 nM in series [42]. Moreover, the values for the Tmax in series [44] and in series [47] were 5.3 h and 1 h, respectively.
